From US11083718B2, “Betahistine, or a pharmaceutically acceptable salt thereof, and a monoamine oxidase inhibitor, for use in the treatment or prevention of one or more symptoms of vertigo in a subject” (INTRABIO LTD, priority 2017, dated 2021)
Where “and” joins values, the source holds several entries; their conditions need not be identical. Equal values may be shown once.

Columns and labels:
[1] = system: acute attacks of vertigo in patients with Menière's disease; test: Observational study: high-dosage betahistine monotherapy versus lower-dosage betahistine plus selegiline; type: in vivo, human
Description: Betahistine dihydrochloride tablets were obtained from Abbott (Vasomotol 24 mg tablets). Selegiline hydrochloride tablets were obtained from Hexal.
Studies by the Applicant investigated the benefits of a high-dosage betahistine monotherapy compared with those of a lower dosage of betahistine in combination with the MAO B inhibitor (MAO-B) selegiline on the frequency of acute attacks of vertigo in patients with Menière's disease (MD).
More specifically, studies investigated the effect of combination therapy in 13 subjects receiving 5 mg per day selegiline hydrochloride (either as one tablet at night, or half a tablet in the morning and half a tablet at night), in conjunction with varying amounts of betahistine dihydrochloride per day (amounts ranging from n=3 to 36, where n is the number of 24 mg tablets per day). All subjects had previously received treatment with betahistine dihydrochloride monotherapy (in amounts ranging from n=9 to 80, where n is the number of 24 mg tablets per day), and the number of vertigo attacks per month were recorded during a three month period of monotherapy prior to commencement of combination treatment. Following combination treatment, the subjects then recorded the number of vertigo attacks per month during the last two months of combination treatment.
The 13 patients in this observational study fulfilled the current diagnostic criteria of MD [48]. Patients with the diagnosis of other peripheral or central vestibular disorders, such as vestibular migraine, benign paroxysmal positional vertigo, paroxysmal brainstem attacks, or functional dizziness, were not included. Patients suffering from known contraindications or hypersensitivity to betahistine, such as bronchial asthma, pheochromocytoma, or treatment with other antihistaminic drugs, ulcer of the stomach or duodendum, or severe dysfunction of liver or kidney were also not treated with betahistine. Patients with known contraindications (e.g., use of meperidine or other opioids, tricyclic antidepressants or non-selective MAOls, selective serotonin re-uptake inhibitors) or hypersensitivity to selegiline were not treated with this agent.
Based on the results of the BEMED trial (showing that betahistine 48 mg tid is evidently not effective) the study initially started with a dosage of 96 mg tid in all patients. During the three- to six-monthly follow-up examinations the daily dosages were adjusted according to the patient's response (approach: “titration” of attacks of vertigo). Patients had been treated for at least 18 months with high dosages of betahistine-dihydrochloride and had ≤1 attacks for at least three months. An initial dosage of 5 mg/day selegiline hydrochloride was chosen (approved dosage for Parkinson's disease is 5 to 10 mg/d). In parallel the dosage of betahistine was reduced to about a tenth of the initial dosage. The design of the observational study was approved by the local ethics committee. Follow-up examinations were after 1 month and then every 3 months to check the efficacy of the treatment and the side-effects and to adjust the betahistine dosage if necessary. Ideally, the objective was to achieve ≤1 attack per three months.

[2] = cited from earlier work
[3] = system: vertigo episodes related to Menière's disease; conditions: daily doses 2×24 mg or 3×48 mg; nine months; cited from earlier work

patients with fullness of the stomach ([1]; 216 to 1920 mg per day, 13 patients): 4 patients
SMILES: CNCCc1ccccn1 [betahistine, 2-[2-(methylamino)ethyl]pyridine]
daily betahistine-dihydrochloride dosage required to achieve a treatment response, mean ([1]; 13 patients): 895.4 mg/day | daily betahistine-dihydrochloride dosage required to achieve a treatment response, mean in tablets ([1]; 13 patients): 37.3 24-mg tablets per day | mean daily dosage of betahistine-dihydrochloride to respond to treatment (≤1 attack per three months), FIG. 1 ([1]; 13 patients, per day): 895.4 mg | tolerability ([1]; 216 to 1920 mg per day): well tolerated | Dosage of betahistine (monotherapy) required that the patient had a significant effect before the combined treatment ([1]; individual patients 1-13 with Menière's disease, tablets per day): 80 n of 24-mg tablets and 30 n of 24-mg tablets (3×) and 9 n of 24-mg tablets and 36 n of 24-mg tablets and 60 n of 24-mg tablets (2×) and 24 n of 24-mg tablets and 18 n of 24-mg tablets (2×) and 50 n of 24-mg tablets and 40 n of 24-mg tablets | plasma concentrations ([2]; betahistine without MAO inhibitor): less than 0.5 ng/ml | first-pass effect ([2]; normally almost complete): 99% | effect on time course of vertigo episodes compared with placebo [3]: does not change the time course of vertigo episodes
